Data from PMC3600154 (Nature, 2013).

Target: mouse CALHM1 (Mus musculus, UniProt D3Z291)
Details: permeant released through the channel; pH 7.4

Chain of mouse CALHM1 (D3Z291 whole entry): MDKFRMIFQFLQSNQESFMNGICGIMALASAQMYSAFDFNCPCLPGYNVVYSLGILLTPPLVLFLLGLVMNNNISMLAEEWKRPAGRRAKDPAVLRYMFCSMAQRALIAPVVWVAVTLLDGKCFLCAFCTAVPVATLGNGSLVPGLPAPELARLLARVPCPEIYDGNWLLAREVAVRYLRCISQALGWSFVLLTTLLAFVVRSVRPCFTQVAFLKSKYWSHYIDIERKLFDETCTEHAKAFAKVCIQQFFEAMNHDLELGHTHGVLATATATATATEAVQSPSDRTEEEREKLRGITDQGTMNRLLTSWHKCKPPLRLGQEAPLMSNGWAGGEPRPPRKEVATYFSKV

Nc1ncnc2c1ncn2[C@@H]1O[C@H](COP(=O)(O)OP(=O)(O)OP(=O)(O)O)[C@@H](O)[C@H]1O [ATP, adenosine 5′-triphosphate]
luciferin-luciferase ATP release assay, transfected HeLa cells: Expression of mouse CALHM1 conferred ATP release with similar properties
